Data reported in patent publication US4892870A, “Oxaza heterocycles and pharmaceutical compositions containing same” (Biofor, Ltd., priority 1988, dated 1990).

Assays:
[1] = cited from G. Moore, U.S. Pat. No. 4,337,345; cited from earlier work
yeast-induced fever = assay: Antipyretic Evaluation (yeast-induced fever); format: in vivo, male Sprague-Dawley rats; details: 300 mg/kg oral; Example 1 in olive oil, Example 2 in 0.25% methylcellulose; all decreases significant at p <0.05 (paired-samples Student's t-Test)
Experimental: Antipyretic: This activity was evaluated by creating a yeast-induced fever in rats according to a modified method of the procedure described by Loux e al in "Toxicology and Applied Pharmacology", Vol. 22: page 672 (1972). In this assay rats injected with yeast in distilled water were dosed with test compounds, aspirin (positive control) and a vehicle (negative control) and the observed differences in body temperature were analyzed statistically.
Antipyretic activity was evaluated using a modification of the test described by Loux et al, in Toxicology and Applied Pharmacology, 22:672(1972), that is, yeast-induced fever in rats. Each test group consisted of ten male Sprague-Dawley rats (Charles River Laboratories), weighing 180-225 grams each. Eighteen hours prior to compound administration the rats were weighed and body temperatures were recorded. Food was removed with water available ad libitum.
Each animal was injected subcutaneously into the central dorsal region with five (5.0) ml portions of a 15% (150 mg/1.0 ml) suspension of Fleischman's yeast in distilled water.
Test compounds suspended in 0.25% methylcellulose (0.25% MC) or olive oil were administered orally by gavage nineteen hours following the yeast injection. Body temperatures were taken and recorded one hour after compound administration. Aspirin (300 mg/kg) was the reference standard drug administered with each antipyretic study. The mean temperature of the compound-treated groups, positive control group (Aspirin) and negative control group (vehicle) were calculated at 18 hours and 20 hours. The data was analyzed statistically using a paired-samples Student's t-Test.

hind paw edema [2] = assay: Adjuvant Arthritis Assay; Developing (percent inhibition of hind paw edema); format: in vivo, female Lewis rats; details: Rattus norvegicus, 96 h, once daily for 4 days in 0.25% methylcellulose, paw volumes on fifth day
Experimental: Anti-Inflammatory: This activity was evaluated via a modification of the Adjuvant Arthritis Assay (AA) described by S. Wong et al in "The Journal of Pharmacology and Experimental Therapeutics", Vol. 185. […] This assay measures the ability of the test compound to antogonize local edema, a characteristic of the inflammatory response. […] The left and right rear paws of female Lewis rats (Charles River Laboratories) weighing 160-180 grams each were measured by mercury displacement prior to injection (Day Zero). Adjuvant arthritis was induced in this rat colony by subcutaneous injection of Mycobacterium butyricum (0.75 mg in 0.1 ml light mineral oil, Fisher) using an automated Cornwall syringe. On days 11-15 post-adjuvant the injected animals with 0.25 to 0.75 ml. paw edema were selected and distributed evenly, according to edema size, into control and experimental groups of ten rats each. Vehicle control and drug treatments were assigned to the groups at random. The assay was performed using a variable dose level for each test compound per kilogram per day in 0.25% methylcellulose. vehicle. All animals were dosed once daily for 4 days and on the fifth day both hind paw volumes were again measured using mercury displacement. The hind paw edema was determined for each rat by subtracting the hind paw volume measured on Day Zero from the hind paw volume measured on the fifth day of the study. Group means were determined and the drug effect was calculated as percent inhibition of the hind paw edema according to the following equation: [formula] […] The known anti-inflammatory NAPROXEN was also tested for comparison purposes.

acetylcholine writhing = assay: Acetylcholine Writhing Assay (analgesic); format: in vivo, male CD-1 mice; details: Mus musculus; oral, 45 min before intraperitoneal acetylcholine; writhes counted 10 minutes
Experimental: Analgesic: The "Acetylcholine Writhing Assay" (ACH) of collier et al [Nature: Vol. 204: page 1316 (1964)] was employed. In this study the test compounds were administered orally to mice and 45 minutes later the mice were injected with acetylcholine. The frequency of writhing was counted in each animal and the response elicited in the drug-treated mice was compared with the response of those given acetylcholine alone.
Analgesic activity was evaluated via the mouse acetylcholine writhing test using a modification of the procedure described by Collier, et al in Nature (New Biol.) Vol. 204; page 1316 (1964) and Br. J. Pharmacol, Chemother, Vol. 32: page 295 (1968). Each test group consisted of ten male CD-1 mice (Charles River Laboratories) weighing 18-28 grams each. Test compounds suspended in a mixture of 0.25% methylcellulose solution […] were administered orally by gavage and fort five minutes later the mice were injected intraperitoneally with acetylcholine (0.55 mg/ml in 0.25% methylcellulose). The number of writhes in each group of mice were counted for 10 minutes immediately following the injection of acetylcholine and the percent inhibition was calculated as follows: [formula] Four dose levels were used to calculate the ED50. of each test compounds.

LD50 = details: rat, in vivo, po
hind paw edema [3] = assay: Adjuvant Arthritis Assay; Immunomodulatory; format: in vivo, Lewis female rats; details: 50 mg/kg oral, Day 5 to 9 inclusive; edema on Day 15
Experimental: Immunomodulatory: This activity was determined by using a Modified Adjuvant Assay procedure in which female rats were injected with Mycobacterium butyricum to induce hind paw edema. The test compounds were administered orally and the difference in volume between dosed and non-dosed paws was determined.
Lewis female rats were injected in the tail subcutaneously with Mycobacterium butyricum (0.75 mg in 0.1 ml light mineral oil, Fisher) on Day Zero. Prior to injection the volumes of the left and right rear paws were measured by mercury displacement. All rats were dosed orally with vehicle or test compounds on Day 5 to 9 inclusive. The volume of both hind paws were determined on Day 15 and the percent inhibitions were calculated based upon average edema on Day 15 relative to the edema mean in the control group.

paw edema = assay: Adjuvant Arthritis Assay; Established (chronic anti-inflammatory and antiarthritic); format: in vivo, rats; details: Rattus norvegicus, 552 h, oral once daily on days 19-22, paw volumes day 23
Experimental: In this assay the differences between dosed and non-dosed paw values were determined postadjuvant. Chronic anti-inflammatory and antiarthritic activity were evaluated using the method described by S. Wong in "Tolmetin: A New Non-steroidal Anti-inflammatory Agent" Editor: John R. Ward, Excerpta Medica, N.J. pp. 1-27 (1976). On day 19 post adjuvant all rats were evenly distributed according to edema size. Doses of treatment or vehicle were administered orally to all rats once daily on days 19-22 inclusive. Final paw volumes were determined on day 23 post adjuvant.

In the case of CC(C)(C)c1cc(S(=O)(=O)c2ccccc2)cc(C(C)(C)C)c1O [2,6-di-(tert-butyl)-4-(phenylsulfonyl)phenol], the anti-inflammatory activity [1] is given as “absence of anti-inflammatory activity”.

In the case of CC(C)(C)c1cccc(C(C)(C)C)c1O [2,6-di-(tert-butyl)phenol], the anti-inflammatory activity [1] is listed as “absence of anti-inflammatory activity”.

For Cc1cc(C(C)(C)C)c(O)c(C(C)(C)C)c1 [3,5-di(tert-butyl)-4-hydroxytoluene], the anti-inflammatory activity [1] is given as “little or no value as an anti-inflammatory agent”.

For CC(C)(C)c1cc(C(=O)c2ccccc2Cl)cc(C(C)(C)C)c1O [4-(2-chlorobenzoyl)-2,6-di-(tert-butyl)phenol], the anti-inflammatory activity [1] is given as “absence of anti-inflammatory activity”.

For CC(C)(C)c1cc(C(=O)c2cc(C(=O)O)ccc2Cl)cc(C(C)(C)C)c1O [4-(5-carboxy-2-chlorobenzoyl)-2,6-di-(tert-butyl)phenol], the anti-inflammatory activity [1] is given as “absence of anti-inflammatory activity”.

In the case of CC(=O)c1cc(C(C)(C)C)c(O)c(C(C)(C)C)c1 [4-acetyl-2,6-(di-tert-butyl)phenol], the anti-inflammatory activity [1] is given as “absence of anti-inflammatory activity”.

In the case of CC(C)(C)c1cc(C(N)=O)cc(C(C)(C)C)c1O [4-carboxamido-2,6-di-(tert-butyl)phenol], the anti-inflammatory activity [1] is given as “absence of anti-inflammatory activity”.

For CCCCCCCCc1cc(C(C)(C)C)c(O)c(C(C)(C)C)c1 [4-n-octyl-2,6-di-(tert-butyl)phenol], the anti-inflammatory activity [1] is given as “absence of anti-inflammatory activity”.

For CC(=O)Oc1ccccc1C(=O)O [Aspirin, reference compound], the “Change in Temperature, 18-20 Hour Period” value (yeast-induced fever) was -2.05 °C.

In the case of CN1OC/C(=C\c2cc(C(C)(C)C)c(O)c(C(C)(C)C)c2)C1=O [Example 1 (E-Isomer), 4-(3,5-di-tert-butyl-4-hydroxybenzylidene)-2-methyl-3-isoxazolidinone], the ED50 (hind paw edema [2]) is reported as 20 mg/kg and the ED50 (acetylcholine writhing) is reported as 18 mg/kg.

Work on CN1OC/C(=C/c2cc(C(C)(C)C)c(O)c(C(C)(C)C)c2)C1=O [Example 1 (Z-Isomer), 4-(3,5-di-tert-butyl-4-hydroxybenzylidene)-2-methyl-3-isoxazolidinone] yielded an ED50 (hind paw edema [2]) of 36 mg/kg.

For CN1OCC(=Cc2cc(C(C)(C)C)c(O)c(C(C)(C)C)c2)C1=O [Example 1, 4-(3,5-Di-tert-Butyl-4-Hydroxybenzylidene)-2-Methyl-3-Isoxazolidinone; E and Z Isomers], the LD50 (LD50) was greater than 1000 mg/kg, the “% Inhibition” value (hind paw edema [3]) was 43% and the “Change in Temperature, 18-20 Hour Period” value (yeast-induced fever) was -1.33 °C. The ED50 (paw edema) was 44 mg/kg.

For CN1OCCC(=Cc2cc(C(C)(C)C)c(O)c(C(C)(C)C)c2)C1=O [Example 2, Dihydro-4-(3,5-Di-tert-Butyl-4-Hydroxybenzylidene)-2-Methyl-2H-1,2-Oxazin-3(4H)-one], the ED50 (hind paw edema [2]) was 7 mg/kg, the LD50 (LD50) was greater than 1000 mg/kg and the “% Inhibition” value (hind paw edema [3]) was 39%. For the same compound, the ED50 (acetylcholine writhing) was 2.8 mg/kg, the “Change in Temperature, 18-20 Hour Period” value (yeast-induced fever) was -1.33 °C and the ED50 (paw edema) was 8 mg/kg.

For COc1ccc2cc([C@H](C)C(=O)O)ccc2c1 [NAPROXEN, reference compound], the ED50 (hind paw edema [2]) was 28 mg/kg, the ED50 (acetylcholine writhing) was 6.2 mg/kg and the ED50 (paw edema) was 28 mg/kg.
